# Patent US9422238B2, “ICMT inhibitors” (National University of Singapore, priority 2012, dated 2016)
# Where two headings read alike, the source gives them in different places.
# What was measured:
# [1] = test system: PC3 cells; assay: In vitro scratch assay (cell migration); format: cell-based, human; settings: PC3, 24 h
# Method: PC3 cells were seeded at 100 000 cells per well in a 6-well plate in media (DMEM, high glucose, 10% FBS, 50 μg/mL penicillin, 50 μg/mL streptomycin) and incubated (37° C., 5% CO2) for 36 hours until confluent. The cell monolayer was scraped in a straight line with a 1 mL pipette tip to create a “scratch” which was also marked at the bottom of the plate with a marker pen. The media was removed from the well which was then washed with PBS. Test compound in 2 mL DMEM (high glucose, 5% FBS) was added to each well (DMSO concentration of 0.05% v/v per well) and the plates were incubated at 37° C., 5% CO2. Control wells with PC3 monolayers were similarly treated. Scratches of approximately the same size were made on control and treated wells. Photographs of the scratched surfaces in wells were taken with a microscope fitted with a camera at the start of incubation and after 24 h. Magnification was kept constant at 40× for all acquired images. These were further analyzed by downloading the images into a Powerpoint® file and measuring (on-screen) the distances between one side of the scratch and the other. For each “scratch”, four or five distances were measured across the length of the scratch in the initial (0 h) image and these same distances were monitored after 24 h. Each compound was tested at 3 concentrations with 3 repeats made for each concentration.
# [2] = test system: PC3 cells; assay: Apoptosis by Annexin V-FITC / propidium iodide staining; format: cell-based, human; settings: PC3, 48 h; for % Apoptotic / % Necrotic / % Normal: one analysis only; for induction of apoptosis: one determination, preliminary
# Method: The Annexing® V-FITC Apoptosis Detection Kit (BD Biosciences, Franklin Lakes, N.J.) was used PC3 cells were seeded at 65 000 cells per well in 6-well plates with DMEM (high glucose, supplemented with 10% FBS) as media. Plates were incubated (24 h, 37° C., 5% CO2) for cells to attach and then treated with test compound (prepared in same media but with 5% FBS) for 48 h. Final volume of DMSO per well was 0.05% v/v. After the specified time, the supernatant in the well was collected, the cell pellet was trypsinized, combined with the supernatant and pelleted by centrifugation (150 g, 5 min). The pellet was rinsed twice with cold 1×PBS and suspended in the proprietary binding buffer (1×) to give a concentration of 10^6 cells per mL. An aliquot (100 μL) of the suspension containing 10^5 cells was transferred to the FACS tube (5 mL) to which was added Annexin® V-FITC solution (5 μL) and propidium iodide (PI) solution (5 μL). The solution was gently vortexed, incubated in the dark for 15 min at room temperature (25° C.), after which was added 400 μL of the binding buffer (1×). The sample was analyzed immediately or no later than 1 h, in which case it should be kept in ice and protected from light. Analysis was carried out on a FCS500 flow cytometer (Beckman Coulter, CA) using the FlowJo® software (http: http://www.flowjo.com/). Controls comprised untreated cells, cells exposed to Annexin® V-FITC only, and cells exposed to PI only. Each test compound was evaluated at 4 concentrations. Only 1 determination was made per concentration.
# [3] = test system: Balb/c mice
# Method: Animals were given free access to water and standard feed. […] The test compound was administered intraperitoneally using a 23G gauge needle to the animal in a volume of vehicle that was tagged to the body weight, namely 0.2 mL for 20 g animal and so on. The vehicle was formulated from ethanol, PEG 400 (Sigma Aldrich) and 5% dextrose (Sigma Aldrich) in the ratio 1:6:3. The test compound was first dissolved in ethanol, PEG400 was added and the solution was vortexed, followed by 5% dextrose and further vortexing. The solutions were freshly prepared before administration.
# [4] = In vitro metabolite structure identification; format: in vitro ADME; settings: rat liver microsomes, 45 min, LC/MS/MS
# Method: The test compound was incubated with rat liver microsomes for 45 minutes, after which aliquots were analyzed by LC/MS/MS for the presence of metabolites. The test compound was incubated with pooled rat liver microsomes (BD Gentest Corp, Woburn, Mass.) in a mixture (final volume 500 μL) comprising the following: rat liver microsomes (7.5 μL of 20 mg microsomal protein to give final concentration of 0.3 mg microsome protein/mL), test compound (2.5 μL of 1 mM test compound in acetonitrile to give final concentration of […]) and phosphate buffer (440 μL of 0.1 M, pH 7.4, containing 1 mM EDTA). The mixture was preincubated for 5 min at 37° C. in a shaking water bath, after which-reaction was initiated by adding 50 μL of 10 mM NADPH (freshly prepared in phosphate buffer) to give a final concentration of 1 mM NADPH in the mixture. Aliquots of 50 μL were withdrawn immediately on addition of NADPH (time 0) and 45 min later. On removal of the sample, reaction was quenched by addition of chilled methanol (100 μL). The mixture was then centrifuged at 10,000 g to remove the protein and the supernatant was analyzed by LC-MS-MS.
# Liquid chromatography was performed on an Agilent® 1200 series HPLC system interfaced with a QTRAP 3200 triple quadruple mass spectrometer (Applied Biosystems, Foster City, Calif.). […]
# [5] = female, Balb/c, mouse, in vivo, ip, 24 h
smiles,measurement,setting,value
"CCCCCCCCn1cc(CN(CC)CC)c2cc(-c3cnc(N)nc3)ccc21 [Compound 8-12, 5-(3-Diethylaminomethyl-1-octyl-1H-indol-5-yl)-pyrimidin-2-ylamine]",gap closure in scratch assay,[1],the gap remained “open” at 2 and 2.5 μM but closed to some extent at a lower concentration of 1.5 μM
same,% Apoptotic,[2]; 0.4 μM,1.45%
same,% Necrotic,[2]; 0.4 μM,4.95%
same,% Normal,[2]; 0.4 μM,93.6%
same,% Apoptotic,[2]; 0.8 μM,1.31%
same,% Necrotic,[2]; 0.8 μM,6.85%
same,% Normal,[2]; 0.8 μM,91.8%
same,% Apoptotic,[2]; 1.0 μM,0.71%
same,% Necrotic,[2]; 1.0 μM,8.84%
same,% Normal,[2]; 1.0 μM,90.4%
same,% Apoptotic,[2]; 1.2 μM,0.93%
same,% Necrotic,[2]; 1.2 μM,7.43%
same,% Normal,[2]; 1.2 μM,91.6%
same,induction of apoptosis,[2],Induction of apoptosis was also not observed
same,tolerability,[3]; [5],"well tolerated at 10, 20 and 50 mg/kg"
same,apparent maximal tolerated dose,"[3]; mice, IP",100 mg/kg
same,metabolites found,[4],four metabolites were proposed
"CCCCCCCCn1cc(CC(N)=O)c2cc(-c3cccc(C)c3)ccc21 [Cysmethynil, 2-[5-(3-methylphenyl)-1-octyl-1H-indolo-3-yl]acetamide, reference compound]",gap closure in scratch assay,[1],"the gap closed to some degree in the presence of 17.5 and 20 μM cysmethynil after 24 h, but remained open in cells treated with 22.5 μM cysmethynil"
same,% Apoptotic,[2]; 12.5 μM,0.92%
same,% Necrotic,[2]; 12.5 μM,6.94%
same,% Normal,[2]; 12.5 μM,92.1%
same,% Apoptotic,[2]; 17.5 μM,1.96%
same,% Necrotic,[2]; 17.5 μM,8.33%
same,% Normal,[2]; 17.5 μM,89.7%
same,% Apoptotic,[2]; 20.0 μM,1.23%
same,% Necrotic,[2]; 20.0 μM,8.06%
same,% Normal,[2]; 20.0 μM,90.7%
same,% Apoptotic,[2]; 22.5 μM,1.21%
same,% Normal,[2]; 22.5 μM,89.6%
same,induction of apoptosis,[2],not found to induce apoptosis
same,maximal tolerated dose,[3]; [5],exceeded 100 kg/kg
same,tolerability,"[3]; mouse, in vivo, ip",well tolerated at all doses
same,metabolites found,[4],4 mono-oxygenated/hydroxylated metabolites (A-D)
